What all share (format): in vivo
The subject of assay [1] is Rhynchosporium secalis. Put plainly: Greenhouse, Rhynchosporium secalis on barley, 1 day residual. The following applies: Example 8; dose rate 100 ppm. Here is the method:
(§1) The trials are carried out under greenhouse (Examples 1 to 32) or field conditions (Examples 33 to 40) in residual or curative applications. The fungicides are applied in single treatments, or in a combination comprising an azolopyrimidine of formula I and a compound selected from the classes (A), (B) and (C) as defined above. The compounds are applied in form of an aqueous spray mix obtained from a concentrated formulation or the technical material.
(§2) 1. Seed is planted in 6 cm diameter plastic pots and maintained in the greenhouse.
2. When the primary leaf is fully expanded in the case of cereals or several leaves are present in the case of dicots, formulated test compounds are sprayed with a three nozzle overhead fungicide sprayer to near run-off. […]
4. Disease on the foliage as percent leaf area with disease symptoms/signs is evaluated about 7 days after inoculation. […]
(§3) Assessments of the diseases took place at the indicated day after the application of the compounds. Per cent infected leaf area infected was evaluated. The efficacy of the compounds/compounds mixtures to control the diseases was calculated by using the formula given above under item 4: […]
Synergy was calculated using the % disease control values of specific treatments for the two COLBY formula given hereinabove […]

The subject of assay [2] is Septoria tritici. The assay can be described thus: Field test, Septoria tritici on wheat. The protocol:
as §1
For the field study formulated Azolopyrimidine A, B or C and formulated compounds from the classes (A), (B) and (C) were used.
as §3
(§4) Synergy was calculated using the % disease control values of specific treatments for the two COLBY formula given hereinabove
The compounds are applied according to good agricultural practice in the form of an aqueous spray mix obtained from a concentrated formulation or the technical material at a rate of 400 l/ha. The disease control is evaluated according to the formula given for the greenhouse tests.
Fungicidal efficacy of the mixture of Azolopyrimidine C+metconazole in the field against Septoria tritici on wheat The tank mix was obtained from an EC formulation containing 150 g Azolopyrimidine C per liter and a SL formulation containing 60 g metconazole per liter. The observed and expected efficacies with different rates are given in Table XXXIVa (19 days after application) and Table XXXIVb (25 days after application):
Fungicidal efficacy of the mixture of (S)-Azolopyrimidine C+kresoxim methyl in the field against Septoria tritici on wheat The tank mix was obtained from a SC formulation containing 100 g (S)-Azolopyrimidine C per liter and a WG formulation containing 500 g kresoxim methyl per kg. The observed and expected efficacies with different rates are given in Tables XXXVa (7 days after application), XXXVb (22 days after application), XXXVc (34 days after application), and XXXVd (41 days after application):
Fungicidal efficacy of the mixture of Azolopyrimidine A and different cereal fungicides the field against Septoria tritici on wheat 15 days after application The tank mix was obtained from an SC formulation containing 100 g Azolopyrimidine A per liter and commercially available formulations of metconazole, epoxiconazole or propiconazole, respectively.

The test system of assay [3] is Erysiphe cichoracearum. Put plainly: Greenhouse, Erysiphe cichoracearum on cucumbers, 1 day residual. The protocol:
as §1, §2
(§5) 2. When the primary leaf is fully expanded in the case of cereals or several leaves are present in the case of dicots, formulated test compounds are sprayed with a three nozzle overhead fungicide sprayer to near run-off. Alternatively, a single nozzle overhead track sprayer is used for application of the compounds to cereals at a rate of 200 l/ha. Plants are then allowed to air-dry.
(§6) 3. Inoculation precedes treatment in the case of curative evaluations and follows treatment in case of residual evaluations. For inoculation of powdery mildew disease, plants are set up on greenhouse benches with bottom watering mats and inoculated by dusting them with conidia from infected plants. Between inoculation and treatment for curative evaluations and between treatment and inoculation for residual evaluations, plants are maintained in the greenhouse with bottom watering.
(§7) 4. Disease on the foliage as percent leaf area with disease symptoms/signs is evaluated about 7 days after inoculation. In the case of wheat, the tips and bases of the leaves are excluded from the evaluation. [formula]
(§8) 1. Technical compounds are formulated in a solvent/surfactant system consisting of 5% acetone and 0.05% Tween 20 in deionized water. Compounds are dissolved in acetone prior to addition of the water; the Tween 20 can be added through either the acetone or the water. Dilutions are made using the solvent/surfactant system. Formulated compounds are prepared using deionized water.
(§9) 2. Two kinds of controls are included: Plants treated with the solvent/surfactant solution and inoculated (Solvent Blank). Untreated plants which are inoculated (Inoculated Control).
as §3, §4
Fungicidal efficacy of the mixture of Azolopyrimidine C+triforine (1 day residual) against Erysiphe cichoracearum on cucumbers
the tank mix was obtained from a SC formulation containing 100 g of Azolopyrimidine C per liter and an DC formulation containing and 190 g of triforine per liter.
Fungicidal efficacy of the mixture of Azolopyrimidine C+cyprodinil (1 day residual) against Erysiphe cichoracearum on cucumbers The tank mix was obtained from a SC formulation containing 100 g of Azolopyrimidine C per liter and a WG formulation containing and 750 g of cyprodinil per kg.

The test system of assay [4] is Puccinia recondita. The assay can be described thus: Greenhouse, Puccinia recondita on wheat, 4 days residual. The following applies: Example 31. Here is the method: as §1, §2, §5, §6
(§10) For inoculation of non-powdery mildew diseases, an aqueous spore suspension of the pathogen is applied to the plant and the plants are kept 1-2 days in a moist infection chamber before being returned to the greenhouse where they are maintained by bottom watering.
as §7, §8, §9, §3, §4
Fungicidal efficacy of the mixture of (S)-Azolopyrimidine C in admixture with Azoxystrobin or Trifloxystrobin (4 days residual) against Puccinia recondita on wheat. The tank mixes were obtained from technical material of (S)-Azolopyrimidine C and Azoxystrobin or Trifloxystrobin.

The test system of assay [5] is Blumeria graminis. The assay can be described thus: Greenhouse, Blumeria graminis on wheat, 2 days curative. The following applies: Example 27. The protocol: as §1, §2, §5, §6, §7, §8, §9, §3, §4
Fungicidal efficacy of the mixture of (S)-Azolopyrimidine C in admixture with Azoxystrobin or Trifloxystrobin (2 days curative) against Blumeria graminis on wheat. The tank mixes were obtained from technical material of (S)-Azolopyrimidine C and Azoxystrobin or Trifloxystrobin.

For assay [6], the system named is Blumeria graminis. Put plainly: Greenhouse, Blumeria graminis on wheat, 4 days residual. The following applies: Example 30. The protocol: as §1, §2, §5, §6, §7, §8, §9, §3, §4
Fungicidal efficacy of the mixture of (S)-Azolopyrimidine C in admixture with Azoxystrobin or Trifloxystrobin (4 days residual) against Blumeria graminis on wheat. The tank mixes were obtained from technical material of (S)-Azolopyrimidine C and Azoxystrobin or Trifloxystrobin.

Assay [7] has as its system Puccinia recondita. The assay can be described thus: Greenhouse, Puccinia recondita on wheat, 2 days curative. The following applies: Example 28. The protocol:
as §1, §2, §5, §6, §10, §7, §8, §9, §3, §4
Fungicidal efficacy of the mixture of (S)-Azolopyrimidine C in admixture with Azoxystrobin or Trifloxystrobin (2 days curative) against Puccinia recondita on wheat. The tank mixes were obtained from technical material of (S)-Azolopyrimidine C and Azoxystrobin or Trifloxystrobin.

For `CC(Nc1c(-c2c(F)cc(F)cc2F)c(Cl)nc2ncnn12)C(F)(F)F` (centres unmarked) [Azolopyrimidine C, 5-chloro-6-(2,4,6-trifluorophenyl)-7-(1,1,1-trifluoroprop-2-ylamino)-[1,2,4]triazolo[1,5-a]pyrimidine], the “Observed Efficacy” value in assay [1] came to 15%; in assay [2] (Example 34, 19 days after application, dose rate 25 g/ha), 48%; in assay [2] (Example 34, 25 days after application, dose rate 50 g/ha), 61%; in assay [2] (Example 34, 25 days after application, dose rate 75 g/ha), 13%; in assay [3] (Example 23, dose rate 1 ppm) it was 0%; in assay [3] (Example 23, dose rate 4 ppm), 7%. In addition, the “Observed Efficacy” value in assay [3] (Example 24, dose rate 1 ppm) is 0%; in assay [3] (Example 24, dose rate 4 ppm) it was 7%.

In the case of “5-chloro-6-(2,4,6-trifluorophenyl)-7-(1,1,1-trifluoroprop-2-ylamino)-[1,2,4]triazolo[1,5-a]pyrimidine [(S)-Azolopyrimidine C]”, the “Observed Efficacy” value in assay [4] (dose rate 3.1 ppm) amounted to 0%; in assay [4] (dose rate 6.3 ppm), 9%; in assay [4] (dose rate 12.5 ppm), 16%; in assay [4] (dose rate 25 ppm) it was 27%; in assay [4] (dose rate 50 ppm) it was 50%; in assay [5] (dose rate 1.6 ppm), 0%. Moreover, the “Observed Efficacy” value in assay [5] (dose rate 3.1 ppm) was 0%; in assay [5] (dose rate 6.3 ppm), 10%; in assay [5] (dose rate 12.5 ppm) it was 40%; in assay [5] (dose rate 25 ppm) it was 61%; in assay [5] (dose rate 50 ppm) it was 81%; in assay [2] ((S)-Azolopyrimidine C 75 g/ha alone, 41 days after application, field, wheat), 92. For the same molecule, the “Observed Efficacy” value was 34% in assay [2] (Example 35, 7 days after application, dose rate 25 g/ha); 74% in assay [2] (Example 35, 22 days after application, dose rate 25 g/ha); 87% in assay [2] (Example 35, 22 days after application, dose rate 100 g/ha); 53% in assay [2] (Example 35, 34 days after application, dose rate 50 g/ha); 70% in assay [2] (Example 35, 34 days after application, dose rate 100 g/ha); 0% in assay [6] (dose rate 3.1 ppm). Also, the “Observed Efficacy” value in assay [6] (dose rate 6.3 ppm) amounted to 0%; in assay [6] (dose rate 12.5 ppm), 3%; in assay [6] (dose rate 25 ppm), 11%; in assay [6] (dose rate 50 ppm), 34%; in assay [7] (dose rate 1.6 ppm), 0%; in assay [7] (dose rate 3.1 ppm), 0%. The “Observed Efficacy” value in assay [7] (dose rate 6.3 ppm) came out at 8%; in assay [7] (dose rate 12.5 ppm) it was 23%; in assay [7] (dose rate 25 ppm) it was 54%.

For the origin of these results see US20030206968A1, “Fungicidal mixtures” (priority 1999, published 2003).
